Reference: article PMC5854716, “Synthesis, molecular docking, ctDNA interaction, DFT calculation and evaluation of antiproliferative and anti-Toxoplasma gondii activities of 2,4-diaminotriazine-thiazole derivatives” (Medicinal Chemistry Research, 2018)

Assays:
[1] = test system: biphenotypic B myelomonocytic leukemia MV4-11 cells; test: In vitro antiproliferative assay (MTT), MV4-11; assay type: cell-based, human; settings: mean ± SD; for IC50: Homo sapiens, MV4-11, 72 h exposure; for IC50 MV4-11: 72 h exposure
Experimental: Biphenotypic B myelomonocytic leukemia MV4-11, human lung carcinoma A549, human breast carcinoma MCF-7, and normal mouse fibroblast BALB/3T3 cells were obtained from American Type Culture Collection (Rockville, Maryland, USA). All the cell lines are being maintained at the Institute of Immunology and Experimental Therapy, Wroclaw, Poland. MV4-11 cells were cultured in RPMI 1640 medium (Gibco, UK) with 2 mM L-glutamine adjusted to contain 1.0 mM sodium pyruvate, and 10% fetal bovine serum (FBS) (all from Sigma-Aldrich, Germany). A549 cells were cultured in RPMI 1640+ Opti-MEM (1:1) (both from Gibco, UK), MCF-7 cells in Eagle medium (IIET, Wroclaw, Poland), BALB/3T3 in Dulbecco medium (IIET, Poland) supplemented with 2 mM L-glutamine and 1.0 mM sodium pyruvate, 10% fetal bovine serum (all from Sigma-Aldrich, Germany). The MCF-7 cell culture was supplemented with 0.8 mg/l of insulin (Sigma-Aldrich, Germany). All culture media were supplemented with 100 units/ml penicillin, and 100 µg/ml streptomycin (both from Polfa Tarchomin S.A., Poland). All cell lines were grown at 37 °C with 5% CO2 humidified atmosphere (Łączkowski et al. [2014], [2016a]).
Prior to usage, the compounds were dissolved in DMSO and culture medium (1: 9) to the concentration of 1 mg/ml, and subsequently diluted in culture medium to reach the required concentrations (0.1, 1, 10, and 100 µg/ml) (Łączkowski et al. [2014], [2016a]).
Twenty-four hours prior to the addition of the tested compounds, the cells counted using Burker hemocytometer were plated in 96-well plates (Sarstedt, Germany) at a density of 1 × 10^4 cells per well. The assay was performed after 72 h of exposure to varying concentrations of the tested agents. The in vitro cytotoxic effect of all agents was examined using the SRB assay for adherent cells (A549, MCF-7, and BALB/3T3) or MTT assay for leukemia cells (MV4-11) as described previously. The results were calculated as an inhibitory concentration 50 (IC50)—the concentration of tested agent which inhibits proliferation of 50% of the cancer cell population. Each compound in each concentration was tested in triplicate in a single experiment, which was repeated 3–7 times (Rubinstein et al. [1990]; Bramson et al. [1995]).
Twenty microliter of MTT solution (MTT: 3-(4,5-dimethylthiazol-2-yl)-2,5-diphenyltetrazolium bromide, stock solution: 5 mg/ml) was added to each well and incubated for 4 h. After the incubation time was complete, 80 µl of the lysis mixture was added to each well (lysis mixture: 225 ml dimethylformamide, 67.5 g sodium dodecyl sulfate and 275 ml of distilled water). The optical densities of the samples were read after 24 h on a Synergy H4 (BioTek Instruments USA) photometer microtiter plate reader at 570 nm (Sidoryk et al. [2012]). All of chemicals were obtained from Sigma-Aldrich, Germany.

[2] = Cell viability assay (MTT), L929; assay type: cell-based, Mus musculus; settings: mouse, L929 fibroblast cells
Summary of the method: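 L929 and VERO cells seeded at 1.0 × 10^4/well, attached 24 h, then exposed 24 h to compounds at 0.9–125.00 μg/ml (from DMSO stock). MTT (1 mg/ml) added for 2 h at 37 °C, formazan dissolved in DMSO, OD read at 550 nm. Viability expressed as percentage of 2.5% DMSO-treated controls; triplicate.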

Row | Structure (SMILES) | IC50 [1] | viability at 24 h, 0.9 µg/ml [2] | viability at 24 h, 1.8 µg/ml [2] | viability at 24 h, 3.9 µg/ml [2] | viability at 24 h, 7.8 µg/ml [2] | viability at 24 h, 15.6 µg/ml [2] | viability at 24 h, 31.2 µg/ml [2] | viability at 24 h, 62.5 µg/ml [2] | viability at 24 h, 125 µg/ml [2] | IC50 MV4-11 [1]
1 | C/C(=N\Nc1nc(-c2ccccc2)cs1)c1ccc(Nc2nc(N)nc(N)n2)cc1 [Compound 4k, (E)-N^2-(4-(1-(2-(4-phenyl-1,3-thiazol-2-yl)hydrazinylidene)ethyl)phenyl)-1,3,5-triazine-2,4,6-triamine] | 2.3 ± 0.97 µg/mL | 109% | 107% | 106% | 101% | 106% | 111% | 116% | 130% | 
2 | C/C(=N\Nc1nc(-c2ccc(F)cc2)cs1)c1ccc(Nc2nc(N)nc(N)n2)cc1 [Compound 4a, (E)-N^2-(4-(1-(2-(4-(4-fluorophenyl)-1,3-thiazol-2-yl)hydrazinylidene)ethyl)phenyl)-1,3,5-triazine-2,4,6-triamine] | 3.21 ± 0.454 µg/mL | 96.6% | 101% | 105% | 99% | 102% | 111% | 115% | 111% | 
3 | C/C(=N\Nc1nc(-c2ccc(Br)cc2)cs1)c1ccc(Nc2nc(N)nc(N)n2)cc1 [Compound 4d, (E)-N^2-(4-(1-(2-(4-(4-bromophenyl)-1,3-thiazol-2-yl)hydrazinylidene)ethyl)phenyl)-1,3,5-triazine-2,4,6-triamine] | 2.14 ± 0.464 µg/mL | 99.9% | 97.8% | 99.9% | 93.7% | 108% | 113% | 115% | 113% | 
4 | C/C(=N\Nc1nc(-c2ccc(Cl)c(Cl)c2)cs1)c1ccc(Nc2nc(N)nc(N)n2)cc1 [Compound 4i, (E)-N^2-(4-(1-(2-(4-(3,4-dichlorophenyl)-1,3-thiazol-2-yl)hydrazinylidene)ethyl)phenyl)-1,3,5-triazine-2,4,6-triamine] | 1.37 ± 0.186 µg/mL | 101% | 97.9% | 96.1% | 100% | 98.1% | 108% | 100% |  | 
5 | C/C(=N\Nc1nc(-c2cc3ccccc3oc2=O)cs1)c1ccc(Nc2nc(N)nc(N)n2)cc1 [Compound 4f, (E)-3-(2-(2-(1-(4-(4,6-diamino-1,3,5-triazin-2-yloamino)phenyl)ethylidene)hydrazinyl)thiazol-4-yl)-2H-chromen-2-on] |  |  |  |  |  |  |  |  |  | 3.08 ± 0.851 µg/mL
6 | CC(=O)Nc1ccc(-c2csc(N/N=C(\C)c3ccc(Nc4nc(N)nc(N)n4)cc3)n2)cc1 [Compound 4g, (E)-N^2-(4-(2-(2-(1-(4-(4,6-diamino-1,3,5-triazin-2-yloamino)phenyl)ethylidene)hydraziny)thiazol-4-yl)phenyl)-acetamide] |  |  |  |  |  |  |  |  |  | 2.76 ± 0.521 µg/mL
7 | C/C(=N\Nc1nc(-c2ccc(I)cc2)cs1)c1ccc(Nc2nc(N)nc(N)n2)cc1 [Compound 4e, (E)-N^2-(4-(1-(2-(4-(4-iodophenyl)-1,3-thiazol-2-yl)hydrazinylidene)ethyl)phenyl)-1,3,5-triazine-2,4,6-triamine] | 1.13 ± 0.25 µg/mL | 96% | 97.6% | 99.1% | 88.8% | 98.8% | 108% | 109% | 101% | 
8 | C/C(=N\Nc1nc(-c2ccc([N+](=O)[O-])cc2)cs1)c1ccc(Nc2nc(N)nc(N)n2)cc1 [Compound 4h, (E)-N^2-(4-(1-(2-(4-(4-nitrophenyl)-1,3-thiazol-2-yl)hydrazinylidene)ethyl)phenyl)-1,3,5-triazine-2,4,6-triamine] | 3.01 ± 0.476 µg/mL | 100% | 98.5% | 100% | 105% | 105% | 114% | 118% | 104% | 
9 | C/C(=N\Nc1nc(-c2ccc(C)cc2)cs1)c1ccc(Nc2nc(N)nc(N)n2)cc1 [Compound 4c, (E)-N^2-(4-(1-(2-(4-(4-tolyl)-1,3-thiazol-2-yl)hydrazinylidene)ethyl)phenyl)-1,3,5-triazine-2,4,6-triamine] | 3.09 ± 0.726 µg/mL | 98.2% | 95.5% | 98.2% | 92.9% | 102% | 105% | 106% | 118% | 
10 | C/C(=N\Nc1nc(-c2ccc(Cl)cc2)cs1)c1ccc(Nc2nc(N)nc(N)n2)cc1 [Compound 4b, (E)-N^2-(4-(1-(2-(4-(4-chlorophenyl)-1,3-thiazol-2-yl)hydrazinylidene)ethyl)phenyl)-1,3,5-triazine-2,4,6-triamine] | 1.89 ± 0.45 µg/mL | 94.8% | 95.3% | 99.4% | 99.4% | 110% | 113% | 119% | 118% | 
11 | C/C(=N\Nc1nc(-c2ccc(NS(C)(=O)=O)cc2)cs1)c1ccc(Nc2nc(N)nc(N)n2)cc1 [Compound 4j, (E)-N-(4-(2-(2-(1-(4-(4,6-diamino-1,3,5-triazin-2-yloamino)phenyl)ethylidene)hydrazinyl)thiazol-4-yl)phenyl)-methanesulfonamide] |  |  |  |  |  |  |  |  |  | 1.73 ± 0.091 µg/mL
